The subject of experiment [1] is circulating CD8^+ T cells. Nature of the experiment: ex vivo combinatorial HLA-A2 MMr assay on PBMCs. Type of experiment: cell-based, human. The method, then: All peptides were synthesized at >90% purity (Synpeptides). HLA-A2 MMrs were produced as described (Leisner et al., 2008) and staining performed in the presence of 50 nM dasatinib (Lissina et al., 2009), as described (Culina et al., 2018). Briefly, cryopreserved PBMCs were magnetically depleted of CD8^− cells (StemCell Technologies), stained with the combinatorial MMr panels (Hadrup et al., 2009) and acquired using a FACSAria III cytometer.

Experiment [2] deals with islet-infiltrating CD8^+ T cells of NOD mice. Nature of the experiment: IFN-γ recall assay of islet-infiltrating cells against peptide-pulsed K^d+ L cells. Type of experiment: cell-based, mouse. The note with it: 12-16-week-old NOD females; for percentage of IFN-γ^+CD8^+ cells, median / percentage of IFN-γ^+CD8^+ cells, positive range: 6 h recall; for positive mice (IFN-γ^+CD8^+ cells >1.8%): positive / tested. From the text: Peptides predicted to be restricted by the murine MHC Class I K^d molecule were identified using prediction algorithms and scanning of the whole murine protein sequence. Peptides were first tested in pools, and positive pools subsequently deconvoluted for reactivity against individual peptides. To this end, islets were isolated from 12-16-week-old NOD mice by collagenase digestion and put in culture with recombinant human IL-2 (Proleukin, Novartis) for 5 days as described (Brezar et al, Eur J Immunol 2012). Cells exiting the islets were subsequently collected and subjected to recall assays against K^d+ L antigen-presenting cells pulsed with the indicated peptides for 6 h in the presence of brefeldin-A, followed by intracellular staining for IFN-γ. The TUM, Ins B15-23 and IGRP 206-214 peptides were included as negative control and positive controls, respectively.

For experiment [3], the system named is circulating CD8^+ T cells. The experiment is described as follows: ex vivo HLA-A3 multimer (MMr) staining of PBMCs. Type of experiment: cell-based, human. The note with it: HLA-A3^+ T1D and healthy donors. Here is the method:
HLA-A3 MMrs were produced and used as described (Gonzalez-Duque, Cell Metab 2018). Each peptide-HLA-A3 complex was used at a final concentration of 8-27 nM and conjugated with fluorochrome-labeled streptavidin at a 1:4 ratio. The concentration of each fluorescent MMr was corrected for the variable staining index of each streptavidin, in order to obtain a distinct double-MMr^+ population for each fluorochrome pair. Compensations were set using fluorescence-minus-one samples (i.e. omitting one streptavidin at a time). The combinatorial MMr panel was first set up by staining HLA-A3^+ PBMCs with the same set of fluorescent streptavidin-labeled MMrs, all loaded with the Flu NP265-273 epitope, which yielded a similar MMr^+CD8^+ T-cell frequency for all the 15 MMr combination pairs.
PBMCs were thawed at 37° C. and immediately diluted in pre-warmed AIM-V medium. Following centrifugation and one additional wash in AIM-V, PBMCs were counted and rested in the presence of 50 nM dasatinib for 30 min at 37° C. to prevent internalization of T-cell receptors before magnetic depletion of CD8^− cells (StemCell Technologies). Staining was performed for 20 min at 20° C. in […] PBS-dasatinib for 10^7 cells with combinatorial double-coded MMr panels, followed, without washing, by CD3-APC-H7 (RRID AB_1645475), CD8-PE-Cy7 (AB_396852), CD45RA-FITC (AB_395879), CCR7-BV421 (AB_2728119) monoclonal antibodies and Live/Dead Aqua (ThermoFisher) staining at 4° C. for 20 min. After one wash, cells were acquired using a FACSAria III cytometer. […] Flow cytometry data were analyzed with FlowJo v10 and Graphpad Prism 7.0 software. Cells were sequentially gated on small lymphocytes, singlets, live cells (Live/Dead Aqua l, CD3^+CD8^+ T cells and total PE^+, PE-CF594^+, APC^+, BV650^+, BV711^+ and BV786^+ MMr^+ T cells. Using Boolean operators, these latter gates allowed to selectively visualize each double-MMr^+ population by including only those events positive for the corresponding fluorochrome pair. For example, SCG3166-174 MMr^+ cells (PE^+PE-CF594^+) were visualized by gating on events that were PE^+PE-CF594^+APC^−BV650^−BV711^−BV786^−. Events negative for all MMr fluorochromes (PE^−PE-CF594^−APC^−BV650^−BV711^−BV786^−) were represented in the same PE/PE-CF-594 dot plot to set the double-MMr^+ gate. CD45RA and CCR7 staining was subsequently visualized by gating on these MMr^+ cells.

In experiment [4] the test system is pancreas-infiltrating cells of HLA-A2^+ T1D patients. The experiment is described as follows: in-situ HLA-A2 MMr staining on pancreas sections. The note with it: 2 HLA-A2^+ T1D cases (nPOD). Type of experiment: cell-based, human. Here is the method:
In-situ staining was performed as described (Culina et al., 2018). Unfixed, frozen sections were dried for 2 h, loaded with 1 μg of MMrs overnight at 4° C., washed gently with phosphate-buffered saline and fixed in 2% paraformaldehyde for 10 min. After a further wash, endogenous peroxidase activity was blocked with 0.3% H2O2. Sections were then incubated serially with rabbit anti-phycoerythrin, horseradish peroxidase-conjugated swine anti-rabbit and 3,3′-diaminobenzidine tetrahydrochloride substrate (ThermoFisher). After a final wash, sections were counterstained with hematoxylin, dehydrated via sequential passages in 95-100% ethanol and xylene, mounted and analyzed using a Nikon Eclipse Ni microscope with NIS-Elements Analysis D software v4.40.

The mark [5] stands for this setting: HLA-A2^+ healthy donors, screening.
Where [6] appears, read: HLA-A2^+ recent-onset T1D and healthy subjects (n=10/each).

Ends that are not written are not given here.

Consider “PCSK230-38: HLA-A2-restricted HLA-eluted β-cell peptide from proprotein convertase 2 (FTNHFLVEL)”, for which, in experiment [1] (setting [5]), the “cognate naïve CD8^+ T-cell repertoire (frequency 1-50/10^6, clustered MMr staining) validated” value (from here on “cognate naïve CD8^+ T-cell repertoire”) is “validated”.
As to “GYRDINEIDI [Pcsk2 109-118, murine Pcsk2 peptide predicted to be restricted by K^d]”, in experiment [2], the “percentage of positive mice” value was determined as 50%; the “percentage of IFN-γ^+CD8^+ cells, median” value is 1.8%; the “percentage of IFN-γ^+CD8^+ cells, positive range” value (“percentage … positive range” for short) is reported as 1.9-4.3%.
As for “RLKPSLVGK [SCG5-009193-201, HLA-A3 restricted peptide from mRNA splice variant SCG5-009]”, in experiment [3], the “validation as HLA-A3-restricted CD8^+ T-cell epitope” value (from here on “validation”) is given as “positive hits”.
In the case of “TYFLLPLLL [Ucn3 5-13, murine Ucn3 peptide predicted to be restricted by K^d]”, in experiment [2], the “percentage of positive mice” value was 67%; the “percentage of IFN-γ^+CD8^+ cells, median” value turned out to be 2.3%; the “percentage … positive range” value was 2.1-8.6%; the “positive mice (IFN-γ^+CD8^+ cells >1.8%)” value was 8/12.
Regarding “PPI6-14: known preproinsulin β-cell epitope used as β-cell positive control (RLLPLLALL; UniProt P01308 6-14, looked up, fragment) [reference compound]”, the “frequency of CD8^+ T cells recognizing the peptide” value in experiment [1] (setting [5]) was 1-50 /10^6 CD8^+ T cells. Further, the “frequency of circulating CD8^+ T cells recognizing the peptide” value in experiment [1] (HLA-A2^+ recent-onset T1D and healthy subjects (n=10/each), similar in both) is 1-50 /10^6 CD8^+ T cells.
With “CHGA344-352: HLA-A2-restricted HLA-eluted β-cell peptide from chromogranin A (KMDQLAKEL)”, the “cognate naïve CD8^+ T-cell repertoire” value in experiment [1] (setting [5]) is recorded as “validated”.
FLSGAVNRL [SCG5-009186-194]: the “cognate naïve CD8^+ T-cell repertoire” value in experiment [1] (setting [5]) is given as “validated”. Besides, the “frequency of MMr^+ cells (in words)” value in experiment [1] (setting [6]) is “particularly high and clustered”.
As to “ZnT8186-184: positive control islet peptide (VAANIVLTV; UniProt Q8IWU4 186-194, looked up, fragment) [reference compound]”, the “in-situ MMr staining of pancreas sections” value in experiment [4] is recorded as “MMr^+ cells could be detected”.
GQWEDASLLSK: the “validation” value in experiment [3] is given as “positive hits”.
Still for that read-out and setting: as for “SCG3166-174: HLA-A3-restricted islet peptide from secretogranin III (AVFDKIVSK)”, the entry is “positive hits”.
Consider “SCG5186-195: HLA-A2-restricted HLA-eluted β-cell peptide from SCG5 (7B2) (YLQGQRLDNV)”, for which the “cognate naïve CD8^+ T-cell repertoire” value in experiment [1] (setting [5]) is given as “validated”.
On to “VFSCLNTAL [Ucn3 32-40, murine Ucn3 peptide predicted to be restricted by K^d]”, for which, in experiment [2], the “percentage of positive mice” value was 67%; the “percentage of IFN-γ^+CD8^+ cells, median” value is 1.9%; the “percentage … positive range” value is 1.9-3.3%; the “positive mice (IFN-γ^+CD8^+ cells >1.8%)” value was 8/12.
With “RYLEHVQAVI [Pcsk2 501-510, murine Pcsk2 peptide predicted to be restricted by K^d]”, in experiment [2], the “percentage of positive mice” value is on record as 63%; the “percentage of IFN-γ^+CD8^+ cells, median” value worked out at 2.7%; the “percentage … positive range” value is 2.1-8.0%; the “positive mice (IFN-γ^+CD8^+ cells >1.8%)” value was 5/8.
For “IGRP 206-214: positive control peptide in NOD recall assay (VYLKTNVFL; UniProt Q9Z186 206-214, looked up, fragment) [reference compound]”, in that order: 100%, 12.5%, 4.5-25.3% and 13/13.
As for “KCNK16129-137: HLA-A2-restricted HLA-eluted β-cell peptide from KCNK16 (ALLGIPLNV)”, in experiment [1] (setting [5]), the “cognate naïve CD8^+ T-cell repertoire” value is “validated”.
Take “ISL1276-284: HLA-A2-restricted HLA-eluted peptide from insulin gene enhancer protein ISL1 (GLQANPVEV)”: the “cognate naïve CD8^+ T-cell repertoire” value in experiment [1] (setting [5]) is recorded as “validated”. Further, the “median frequency detected in peripheral blood” value in experiment [1] (T1D patients) is given as 7.2×10^−6. Besides, the “in-situ MMr staining of pancreas sections” value in experiment [4] is reported as “MMr^+ cells could be detected”.
In the case of “PNMA250-58: HLA-A3-binding islet peptide not validated as CD8+ T-cell epitope (RLLGKIFRK)”, in experiment [3], the “validation” value is on record as “single exception”.
Consider “LYDESCSSTL [Pcsk2 341-350, murine Pcsk2 peptide predicted to be restricted by K^d]”, for which, in experiment [2], the “percentage of positive mice” value is 75%; the “percentage of IFN-γ^+CD8^+ cells, median” value was found to be 3.3%; the “percentage … positive range” value is recorded as 1.9-5.2%; the “positive mice (IFN-γ^+CD8^+ cells >1.8%)” value was 6/8.
Consider “KIF1A860-868: HLA-A3-restricted islet peptide from KIF1A (LLYPVPLVH)”, for which the “validation” value in experiment [3] is reported as “positive hits”.
With “KIF1A1347-1355: HLA-A2-restricted HLA-eluted β-cell peptide from Kinesin Family Member 1A (VLDTSVAYV)”, in experiment [1] (setting [5]), the “cognate naïve CD8^+ T-cell repertoire” value is given as “validated”.
As for MLMPVHFLL, in experiment [1] (setting [5]), the “cognate naïve CD8^+ T-cell repertoire” value is “validated”. Moreover, in experiment [1] (setting [6]), the “frequency of MMr^+ cells (in words)” value is “particularly high and clustered”.

Source of the values: patent publication US12098179B2, “Antigenic peptides deriving from urocortin 3 and uses thereof for the diagnosis and treatment of type 1 diabetes” (INSERM (INSTITUT NATIONAL DE LA SANTÉ ET DE LA RECHERCHE …, priority 2018, dated 2024).
